According to US8802731B2, “N-acetyl beta alanine methods of use” (ThermoLife International, LLC, priority 2011, dated 2014):

Key:
subjects [1] = experiment: paresthesia after administration of N-acetyl beta alanine to subjects; assay type: in vivo, human
From the text: For the exemplary purposes of this disclosure, the Applicants have administered N-acetyl beta alanine to over 30 different subjects in doses ranging from 1 to even 10 grams.

solubility in water = assay type: physicochemical; conditions: found by applicants
[2] = solubility in organic solvents; assay type: physicochemical
well trained athletes = experiment: effects reported by well trained athletes given N-acetyl-beta alanine; assay type: in vivo, human; conditions: 5 grams per day x1, 10 well trained athletes, self-report
From the text: For the exemplary purposes of this disclosure, the Applicants have also administered N-acetyl-beta alanine at a dose of 5 grams per day ×1 in 10 subjects, all of them well trained athletes that had in the past used beta alanine and were well aware of it's benefits. All of the subjects had not used beta alanine for at least a month. They were asked to report the effects of the “new beta alanine preparation” they were offered.

[3] = single ingested dose; cited from earlier work
[4] = cited from earlier work
[5] = tested on: experienced resistance-trained athletes; conditions: four weeks of supplementation; cited from earlier work
mice = conditions: cited from earlier work
elderly men and women = conditions: cited from earlier work
individuals = conditions: cited from earlier work
[6] = described (literature); cited from earlier work
[7] = cited from earlier work; remark: listed apart in the source
subjects [8] = conditions: 10 weeks of resistance training with supplementation; cited from earlier work
fructose-fed rats = conditions: preliminary experiment; cited from earlier work

In the case of CC(=O)NCCC(=O)O [N-acetyl beta alanine, 3-acetamidopropanoic acid], the paresthesia (subjects [1]; large doses of 5+ grams) is reported as “no paresthesia observed”, the “paresthesia or negative feelings described by users” value (subjects [1]; over 30 subjects, doses ranging from 1 to 10 grams) is reported as “No paresthesia or negative feelings” and the solubility in water (solubility in water) is reported as 22 g/100 mL. For the same compound, the “solubility in water and organic solvents” value [2] was “soluble in water and organic solvents”, the “rate at which full benefits were exhibited” value (well trained athletes) was “full benefits were exhibited at a faster rate” and the “reported effectiveness compared with normal beta-alanine” value (well trained athletes) was “improved effectiveness over normal beta-alanine”.
For NCCC(=O)O [beta alanine, β-Alanine], the “single dose above which symptoms of paresthesia may be observed” value [3] is given as “higher than 800 mg”, the “acidosis due to exercise” value ([4]; 4.8 grams per day) is given as “can attenuate acidosis due to exercise” and the “fall in blood pH during high-intensity exercise” value ([4]; chronic supplementation) is given as “can attenuate the fall in blood pH”. For the same compound, the “muscular endurance during resistance training” value [5] was “can significantly improve muscular endurance”, the “behavioral effect of supplemented diet” value (mice) was “anxiolytic-like effect” and the “increase in physical working capacity fatigue threshold” value (elderly men and women; 800 mg x3 per day, elderly (55-92 years)) was 28%. The “physical working capacity / onset of neuromuscular fatigue” value (elderly men and women; ninety days of supplementation, elderly men and women) was “may increase physical working capacity by delaying the onset of neuromuscular fatigue”, the “aerobic capacity (VO2max)” value (individuals; post supplementation, 28 days) was “reduced aerobic capacity” and the “sub-maximal endurance performance (OBLA)” value (individuals; supplementation for 28 days) was “enhanced sub-maximal endurance performance by delaying OBLA”. For the same compound, the water solubility [6] was 55-89 grams/100 ml, the “maximal strength or VO2max” value ([7]; in vivo) was “does not improve maximal strength or VO2max” and the “onset of neuromuscular fatigue” value ([7]; in vivo) was “delay the onset of neuromuscular fatigue”. The “performance in high-intensity exercise” value ([7]; multiple bouts of high-intensity exercise and single bouts lasting more than 60 s) was “improvements in performance” and the “increase in Muscle-Carnosine” value (subjects [8]) was 12.81+/−7.97 mmol×kg (−1) dry muscle.
In the case of NCCC(=O)N[C@@H](Cc1cnc[nH]1)C(=O)O [carnosine], the “diabetes-associated increase in blood pressure” value (fructose-fed rats) is listed as “suppressed diabetes-associated increase in blood pressure”.
For NCCS(=O)(=O)O [taurine], the “behavioral effect of supplemented diet” value (mice) is listed as “antidepressant-like effect”.
